From ChEMBL document CHEMBL3763096, “8-Halo-substituted naphtho[2,3-b]thiophene-4,9-diones as redox-active inhibitors of keratinocyte hyperproliferation with reduced membrane-damaging properties” (Eur J Med Chem, 2016) come the findings set out here.

Activity calls are given as the source filed them. No cut-off for these calls is given here.

Data set [1] concerns HaCaT. Put plainly: Cytotoxicity against human HaCaT cells assessed as LDH level at 2 uM incubated for 4 hrs. The class given is cell-based.
Data set [2] concerns HaCaT. Put plainly: Antihyperproliferative activity against human HaCaT cells after 48 hrs by phase contrast microscopic analysis. The class given is functional, cell-based.
For data set [3], the target named is T1, NADPH--cytochrome P450 reductase (Homo sapiens, UniProt P16435).
T1 sequence (P16435 whole entry): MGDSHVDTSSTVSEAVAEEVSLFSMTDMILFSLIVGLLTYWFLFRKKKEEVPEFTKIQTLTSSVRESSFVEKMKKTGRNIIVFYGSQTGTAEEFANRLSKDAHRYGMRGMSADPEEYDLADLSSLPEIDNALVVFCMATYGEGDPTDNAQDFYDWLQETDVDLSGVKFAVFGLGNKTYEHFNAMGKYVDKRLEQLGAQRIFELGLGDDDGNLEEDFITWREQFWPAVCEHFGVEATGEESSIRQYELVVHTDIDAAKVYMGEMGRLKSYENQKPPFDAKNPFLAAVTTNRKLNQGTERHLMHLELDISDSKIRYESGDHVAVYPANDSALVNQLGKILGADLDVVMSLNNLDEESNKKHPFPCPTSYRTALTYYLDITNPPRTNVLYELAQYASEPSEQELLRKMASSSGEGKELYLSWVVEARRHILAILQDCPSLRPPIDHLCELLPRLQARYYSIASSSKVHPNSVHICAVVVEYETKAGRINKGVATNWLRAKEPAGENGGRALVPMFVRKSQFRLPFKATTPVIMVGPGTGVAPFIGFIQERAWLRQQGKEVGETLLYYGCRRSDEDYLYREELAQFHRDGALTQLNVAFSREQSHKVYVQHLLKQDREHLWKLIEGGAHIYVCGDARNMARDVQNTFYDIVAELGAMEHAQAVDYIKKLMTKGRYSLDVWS
Put plainly: Activity at human recombinant CPR assessed as superoxide generation at 100 umol/ml by spectrophotometric assay.

For data set [4], the system named is HaCaT. Description: Increase in superoxide generation in human HaCaT cells at 5 uM incubated for 18 hrs pretreated with 5 umol/L NQO1 inhibitor dicoumarol for 25 mins followed by compound addition by DHE-based flow cytometric analysis. The class given is functional, cell-based.
Data set [5] relates to HaCaT. Description: Increase in superoxide generation in human HaCaT cells at 5 uM incubated for 18 hrs by DHE-based flow cytometric analysis. The data set is classed as functional, cell-based.
Data set [6] deals with NAD(P)H dehydrogenase [quinone] 1 (Homo sapiens) (UniProt P15559). Description: Activity at human recombinant NQO1 assessed as superoxide generation at 25 umol/ml by spectrophotometric assay.
NAD(P)H dehydrogenase [quinone] 1 (Homo sapiens), sequence (P15559 whole entry): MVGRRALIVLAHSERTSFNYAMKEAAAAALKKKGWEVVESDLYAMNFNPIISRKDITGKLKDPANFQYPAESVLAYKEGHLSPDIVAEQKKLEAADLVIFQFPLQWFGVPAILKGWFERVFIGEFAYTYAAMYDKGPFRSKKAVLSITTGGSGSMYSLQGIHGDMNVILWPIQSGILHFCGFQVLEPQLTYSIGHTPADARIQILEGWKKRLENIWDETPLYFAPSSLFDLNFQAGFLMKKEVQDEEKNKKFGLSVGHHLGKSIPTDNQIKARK

On to `CC(=O)c1cc2c(s1)C(=O)c1ccccc1C2=O`, for which, in the data set with HaCaT [1], the Activity amounted to 253 mU/ml.
The compound `O=C1c2ccsc2C(=O)c2c(I)cccc21` displayed a half-maximal inhibitory concentration (IC50) in the data set with HaCaT [2] of over 30 µM.
Compound `O=C(c1cccs1)c1cc2c(s1)C(=O)c1c(Cl)cccc1C2=O` gave an IC50 in the data set with HaCaT [2] of 1.54 µM. In addition, the Activity in the data set with HaCaT [1] amounted to 127 mU/ml.
With `CC(=O)c1cc2c(s1)C(=O)c1c(Cl)cccc1C2=O`, the figures for the Activity entry (in data set [3]; in the data set on HaCaT [1]) were “Active” and 124 mU/ml, respectively. Besides, the result with HaCaT [4] and in the data set on HaCaT [5] was Active.
In the data set on HaCaT [2], `CCOC(=O)c1cc2c(s1)C(=O)c1c(Br)cccc1C2=O` returned an IC50 of 1.72 µM. In addition, the Activity with HaCaT [1] was found to be 121 mU/ml.
`O=Cc1cc2c(s1)C(=O)c1c(Br)cccc1C2=O`: half-maximal inhibition with HaCaT [2] (IC50) was put at 3.82 µM. This counts as single-digit micromolar.
Consider `O=C1c2cc(-c3nnn[nH]3)sc2C(=O)c2c(Cl)cccc21`, for which the half-maximal inhibitory concentration (IC50) in the data set with HaCaT [2] was over 30 µM. Further, the Activity with HaCaT [1] is listed as 95 mU/ml.
For `CC1=CC(=O)c2ccccc2C1=O` [MENADIONE], in data set [3], the outcome was Active.
With `O=Cc1cc2c(s1)C(=O)c1c(Cl)cccc1C2=O`, inhibition with HaCaT [2] was half-maximal at 4.7 µM (IC50). Besides, the Activity in the data set with HaCaT [1] is 107 mU/ml.
The corresponding values for `O=C(c1ccccc1)c1cc2c(s1)C(=O)c1c(Cl)cccc1C2=O` are 1.77 µM and 122 mU/ml.
As for `O=C(Oc1ccccc1)c1cc2c(s1)C(=O)c1c(Br)cccc1C2=O`, the IC50 in the data set with HaCaT [2] stood at 6.64 µM.
On the same count and under the same terms, under `O=C1c2ccsc2C(=O)c2c(Br)cccc21` stands 14.8 µM.
Turning to `O=C(Nc1ccccc1)c1cc2c(s1)C(=O)c1c(Cl)cccc1C2=O`, the IC50 with HaCaT [2] is over 30 µM. For the same compound, the Activity in the data set with HaCaT [1] worked out at 121 mU/ml.
On to `O=C1c2ccsc2C(=O)c2c(Cl)cccc21`, for which, in data set [3], the result was Active. The result in the data set on HaCaT [4] and with HaCaT [5] was Active. Further, in data set [6], the result was inactive.
Compound `COC(=O)c1cc2c(s1)C(=O)c1c(Br)cccc1C2=O` gave an IC50 in the data set with HaCaT [2] of 2.2 µM. For the same compound, the Activity in the data set on HaCaT [1] is reported as 124 mU/ml.
The corresponding values for `CCOC(=O)c1cc2c(s1)C(=O)c1c(Cl)cccc1C2=O` are 1.22 µM and 97 mU/ml.
As for `CC(=O)c1cc2c(s1)C(=O)c1c(O)cccc1C2=O`, the Activity entry in data set [3] was “Active”; in the data set on HaCaT [1], 319 mU/ml. The result in the data set on HaCaT [4] and in the data set on HaCaT [5] was Active.
In turn, `CCC(=O)c1cc2c(s1)C(=O)c1c(Cl)cccc1C2=O` displayed a half-inhibitory concentration (IC50) in the data set with HaCaT [2] of 2.75 µM. Also, in the data set on HaCaT [1], the Activity worked out at 116 mU/ml.
For `CC(=O)c1cc2c(s1)C(=O)c1c(Br)cccc1C2=O`, in that order: 1.5 µM and 116 mU/ml.
Turning to `CCc1noc(-c2cc3c(s2)C(=O)c2c(Cl)cccc2C3=O)n1`, the Activity entry in data set [3] was “Active”; with HaCaT [1], 121 mU/ml. Besides, the result in the data set on HaCaT [4] and with HaCaT [5] was Active. Also, the result in data set [6] was inactive. Moreover, inhibition with HaCaT [2] was half-maximal at 0.59 µM (IC50).
Regarding `O=C1c2ccsc2C(=O)c2c(F)cccc21`, the midpoint of inhibition in the data set with HaCaT [2], the IC50, lay at 8.5 µM.
As to `O=C1c2ccsc2C(=O)c2c(O)cccc21`, the result in data set [3] was Active. Further, the outcome in the data set with HaCaT [4] and in the data set with HaCaT [5] was Active.
Take `COC(=O)c1cc2c(s1)C(=O)c1c(Cl)cccc1C2=O`: in the data set with HaCaT [2], the half-inhibitory concentration (IC50) came out at 0.9 µM. Moreover, the Activity in the data set with HaCaT [1] is given as 130 mU/ml.
For `O=C(Oc1ccccc1)c1cc2c(s1)C(=O)c1c(Cl)cccc1C2=O`, in that order: 10.5 µM and 97 mU/ml.
For `O=C(c1cccnc1)c1cc2c(s1)C(=O)c1c(Cl)cccc1C2=O`, in that order: 0.57 µM and 125 mU/ml.
For `CCC(=O)c1cc2c(s1)C(=O)c1c(Br)cccc1C2=O`, in that order: 2.91 µM and 113 mU/ml.
In the data set with HaCaT [2], `O=C(c1cccs1)c1cc2c(s1)C(=O)c1c(Br)cccc1C2=O` registered an IC50 of 11.9 µM. Further, in the data set on HaCaT [1], the Activity is recorded as 107 mU/ml.
The compound `O=C(c1cccnc1)c1cc2c(s1)C(=O)c1c(Br)cccc1C2=O` showed a concentration for half-maximal inhibition (IC50) with HaCaT [2] of 8.63 µM.
Take `O=C(O)c1cc2c(s1)C(=O)c1c(Br)cccc1C2=O`: the IC50 with HaCaT [2] is over 30 µM. Further, the Activity in the data set with HaCaT [1] was 108 mU/ml.
For `CCN(CC)C(=O)c1cc2c(s1)C(=O)c1c(Cl)cccc1C2=O`, in that order: 0.72 µM and 112 mU/ml.
With `CCc1noc(-c2cc3c(s2)C(=O)c2c(O)cccc2C3=O)n1`, in data set [3], the result was Active. The result in the data set on HaCaT [4] and in the data set on HaCaT [5] was Active.
Turning to `CCNC(=O)c1cc2c(s1)C(=O)c1c(Cl)cccc1C2=O`, inhibition with HaCaT [2] was half-maximal at 1.05 µM (IC50). The Activity in the data set on HaCaT [1] is recorded as 109 mU/ml.
For `O=C(c1ccccc1)c1cc2c(s1)C(=O)c1c(Br)cccc1C2=O`, in that order: 13.2 µM and 121 mU/ml.
In turn, `O=C1c2ccsc2C(=O)c2c1cccc2C(F)(F)F` gave an IC50 in the data set on HaCaT [2] of 4.85 µM.
Turning to `O=C(O)c1cc2c(s1)C(=O)c1c(Cl)cccc1C2=O`, the half-maximal inhibitory concentration (IC50) with HaCaT [2] is over 30 µM. For the same compound, the Activity in the data set with HaCaT [1] came to 112 mU/ml.
